# Values quoted from earlier work in US11873519B2, “Composition for preventing age-related metabolic and tissue degenerative changes” (priority 2017, dated 2024).
# Test system: Ewing's sarcoma PDOX
substance,measurement,value
L-methionine α-deamino-γ-mercaptomethane lyase [rMETase],Serum and tumor MET levels versus controls,lower
same,Tumor growth compared to untreated control mice,effectively reduced tumor growth
